Read-outs that look alike come from different tables or passages of the source.
Experiments:
[1] = target: 5HT₂-Rezeptor (Homo sapiens, UniProt P28223); assay: 3H-Metanserin binding test (test method d)
[2] = target: 5HT1C-Rezeptor (Homo sapiens, UniProt P28335); assay: 3H-Mesulergin binding test (test method c)
[3] = target: T1, 5HT1c-Rezeptoren (Rattus norvegicus, UniProt P08909); assay: Antagonism of mCPP-induced penile erections; assay type: in vivo, Ratte; settings: mCPP-pretreated, dose inhibiting number of penile erections within 45 min by 50%
T1 construct: from tissue; host or cells: living rat (whole animal)
T1 sequence (P08909 33-460): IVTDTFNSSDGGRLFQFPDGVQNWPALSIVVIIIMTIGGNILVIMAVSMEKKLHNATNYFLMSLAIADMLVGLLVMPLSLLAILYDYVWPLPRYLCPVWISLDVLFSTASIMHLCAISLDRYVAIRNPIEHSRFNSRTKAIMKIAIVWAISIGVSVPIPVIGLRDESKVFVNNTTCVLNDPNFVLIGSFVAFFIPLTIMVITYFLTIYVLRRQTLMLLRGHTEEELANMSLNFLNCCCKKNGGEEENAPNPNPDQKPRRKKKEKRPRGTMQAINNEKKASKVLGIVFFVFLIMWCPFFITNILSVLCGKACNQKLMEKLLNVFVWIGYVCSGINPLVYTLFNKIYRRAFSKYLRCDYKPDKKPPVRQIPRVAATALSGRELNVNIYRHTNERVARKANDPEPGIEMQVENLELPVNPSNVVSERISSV

[4] = target: T2, 5HT1A-Rezeptor (Homo sapiens, UniProt P08908); assay: 3H-8-OH-DPAT binding test (test method a)
T2 sequence (P08908 1-422): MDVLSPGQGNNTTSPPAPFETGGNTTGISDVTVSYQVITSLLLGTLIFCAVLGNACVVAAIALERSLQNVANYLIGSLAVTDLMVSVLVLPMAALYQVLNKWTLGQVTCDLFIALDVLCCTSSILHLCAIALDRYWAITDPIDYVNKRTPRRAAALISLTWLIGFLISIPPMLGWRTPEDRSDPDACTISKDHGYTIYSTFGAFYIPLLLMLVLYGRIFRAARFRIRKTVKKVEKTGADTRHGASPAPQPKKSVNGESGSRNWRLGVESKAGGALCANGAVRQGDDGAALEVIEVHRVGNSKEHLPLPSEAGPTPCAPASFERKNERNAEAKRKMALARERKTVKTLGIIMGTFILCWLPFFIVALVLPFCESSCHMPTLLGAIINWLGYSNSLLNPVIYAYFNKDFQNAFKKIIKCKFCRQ

[5] = target: T3, 5HT₂-Rezeptoren (Rattus norvegicus, UniProt P14842); assay: Antagonism of Quipazine-induced head shakes; assay type: in vivo, Ratte; settings: Quipazine-pretreated, dose inhibiting number of head shakes within 45 min by 50%
T3 construct: from tissue; host or cells: living rat (whole animal)
T3 sequence (P14842 whole entry): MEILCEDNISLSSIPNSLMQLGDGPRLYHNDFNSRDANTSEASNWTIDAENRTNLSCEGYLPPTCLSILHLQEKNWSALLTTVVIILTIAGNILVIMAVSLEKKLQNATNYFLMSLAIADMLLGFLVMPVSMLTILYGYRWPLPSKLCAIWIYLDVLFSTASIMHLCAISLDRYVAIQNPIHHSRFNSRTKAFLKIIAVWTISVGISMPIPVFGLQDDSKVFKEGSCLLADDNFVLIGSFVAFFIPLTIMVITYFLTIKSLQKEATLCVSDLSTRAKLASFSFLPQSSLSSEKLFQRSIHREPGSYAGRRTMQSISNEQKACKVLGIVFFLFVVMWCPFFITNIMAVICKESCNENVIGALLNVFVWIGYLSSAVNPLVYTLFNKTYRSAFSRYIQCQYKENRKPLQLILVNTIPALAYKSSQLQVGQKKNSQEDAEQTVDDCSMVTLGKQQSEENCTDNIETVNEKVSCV

[6] = Testmethode d, concentration displacing 50% of receptor-bound ligand (3H-Metanserin), read-out: IC₅₀
[7] = Testmethode a, concentration displacing 50% of receptor-bound ligand (3H-8-OH-DPAT), read-out: IC₅₀
[8] = Testmethode c, concentration displacing 50% of receptor-bound ligand (3H-Mesulergin), read-out: IC₅₀

Chain of 5HT₂-Rezeptor (P28223 whole entry): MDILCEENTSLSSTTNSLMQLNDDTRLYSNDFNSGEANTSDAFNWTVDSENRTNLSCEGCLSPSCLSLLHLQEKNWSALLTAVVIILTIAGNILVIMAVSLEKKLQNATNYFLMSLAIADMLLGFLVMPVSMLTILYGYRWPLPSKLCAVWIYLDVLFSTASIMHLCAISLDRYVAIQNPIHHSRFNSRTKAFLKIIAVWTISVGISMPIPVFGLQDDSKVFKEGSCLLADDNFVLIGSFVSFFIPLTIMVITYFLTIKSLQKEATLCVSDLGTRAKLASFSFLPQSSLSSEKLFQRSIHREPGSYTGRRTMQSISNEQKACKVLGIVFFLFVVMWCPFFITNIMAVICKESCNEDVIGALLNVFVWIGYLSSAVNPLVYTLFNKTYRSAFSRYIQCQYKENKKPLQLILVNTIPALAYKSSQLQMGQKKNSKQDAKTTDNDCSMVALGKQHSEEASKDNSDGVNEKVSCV
Chain of 5HT1C-Rezeptor (P28335 33-458): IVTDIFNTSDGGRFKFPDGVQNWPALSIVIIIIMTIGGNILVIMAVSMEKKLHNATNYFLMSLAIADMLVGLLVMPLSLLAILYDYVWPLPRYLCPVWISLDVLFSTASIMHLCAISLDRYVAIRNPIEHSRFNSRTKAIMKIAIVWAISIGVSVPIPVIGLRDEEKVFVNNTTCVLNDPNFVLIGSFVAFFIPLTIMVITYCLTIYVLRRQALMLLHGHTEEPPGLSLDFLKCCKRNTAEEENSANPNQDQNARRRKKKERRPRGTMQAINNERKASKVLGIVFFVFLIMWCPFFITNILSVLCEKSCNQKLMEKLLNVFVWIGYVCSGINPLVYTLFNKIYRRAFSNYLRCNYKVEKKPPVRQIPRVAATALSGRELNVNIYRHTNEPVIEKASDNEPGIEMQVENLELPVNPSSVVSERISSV

| SMILES | IC50 [1] | IC50 [2] | ID₅₀ [3] | IC50 [4] | IC50 [1, 6] | IC50 [4, 7] | IC50 [2, 8] | ID₅₀ [5] |
| --- | --- | --- | --- | --- | --- | --- | --- | --- |
| COc1c2n(c3ccc(F)cc13)CCNC2 [Substanz B, 8-Fluor-1,2,3,4-tetrahydro-10-methoxy-pyrazino[1,2-a]-indol] | 9390 nM | 367 nM | 4.2 mg/kg, s.c. | 2370 nM |  |  |  |  |
| Cc1nc2ccccn2c(=O)c1CCN1CCC(C(=O)c2ccc(F)cc2)CC1 [Pirenperon, reference compound] |  | 37 nM |  | 2870 nM | 2.9 nM |  |  |  |
| CSc1c2n(c3ccccc13)CCNC2 [Substanz K, 1,2,3,4-Tetrahydro-10-methylthiopyrazino[1,2-a]-indol] |  |  |  |  |  | 705 nM |  |  |
| COc1ccc2[nH]cc(C3=CCNCC3)c2c1 [RU 24969, reference compound] |  |  |  | 8 nM |  |  |  |  |
| COc1c2n(c3ccc(Cl)cc13)CCNC2 [Substanz D, 8-Chlor-1,2,3,4-tetrahydro-10-methoxy-pyrazino[1,2-a]-indol] |  | 195 nM |  | 657 nM | 3140 nM |  |  |  |
| Fc1ccc2c(cc3n2CCNC3)c1Cl [Substanz N, 9-Chlor-8-fluor-1,2,3,4-tetrahydropyrazino[1,2-a]indol] |  |  | 4.2 mg/kg, s.c. | 964 nM | 902 nM |  | 57 nM | 5.2 mg/kg. s.c. |
| COc1c2n(c3ccccc13)CCNC2 [Substanz A, 10-Methoxy-1,2,3,4-tetrahydropyrazino[1,2-a]-indol] |  |  |  |  |  | 687 nM |  |  |
| COc1c2n(c3cc(Cl)cc(Cl)c13)CCNC2 [Substanz L, 7,9-Dichlor-1,2,3,4-tetrahydro-10-methoxy-pyrazino[1,2-a]indol] |  |  |  | 459 nM | 5850 nM |  | 251 nM |  |
| COc1c2n(c3cccc(C(F)(F)F)c13)CCNC2 [Substanz J, 9-Trifluormethyl-1,2,3,4-tetrahydro-10-methoxy-pyrazino[1,2-a]-indol] |  |  |  | 512 nM | 374 nM |  | 66 nM |  |
| Cc1nc2sccn2c(=O)c1CCN1CCC(=C(c2ccc(F)cc2)c2ccc(F)cc2)CC1 [Ritanserin, reference compound] |  |  |  |  |  |  | 37 nM |  |
| COc1c2n(c3cccc(C)c13)CCNC2 [Substanz I, 1,2,3,4-Tetrahydro-10-methoxy-9-methyl-pyrazino[1,2-a]indol] |  |  | 2.7 mg/kg, s.c. |  | 2270 nM | 106 nM | 219 nM | 3.0 mg/kg. s.c. |
| COc1c2n(c3ccc(F)c(Cl)c13)CCNC2 [Substanz H, 9-Chlor-8-fluor-1,2,3,4-tetrahydro-10-methoxy-pyrazino[1,2-a]indol] |  |  |  | 354 nM | 1030 nM |  | 90.5 nM |  |
| COc1c2n(c3ccc(Br)cc13)CCNC2 [Substanz G, 8-Brom-1,2,3,4-tetrahydro-10-methoxy-pyrazino[1,2-a]indol] |  |  |  | 298 nM | 2810 nM |  | 269 nM |  |
| O=c1ccc2[nH]cc(C3=CCNCC3)c2[nH]1 [CP 93129, reference compound] | 29200 nM |  |  | 1620 nM |  |  |  |  |
| COc1c2n(c3cccc(Br)c13)CCNC2 [Substanz E, 9-Brom-1,2,3,4-tetrahydro-10-methoxy-pyrazino[1,2-a]indol] | 1020 nM | 83.8 nM | 4.3 mg/kg, s.c. | 407 nM |  |  |  | 3.1 mg/kg. s.c. |
| COc1ccccc1N1CCN(CCCCN2C(=O)c3ccccc3C2=O)CC1 [NAN-190, reference compound] | 581 nM |  |  |  |  |  | 1800 nM |  |
| COc1c2n(c3c(Br)cccc13)CCNC2 [Substanz M, 6-Brom-1,2,3,4-tetrahydro-10-methoxy-pyrazino[1,2-a]indol] |  |  |  | 690 nM | 3030 nM |  | 923 nM |  |
| COc1c2n(c3cc(Cl)ccc13)CCNC2 [Substanz F, 7-Chlor-1,2,3,4-tetrahydro-10-methoxy-pyrazino[1,2-a]indol] |  |  |  | 425 nM | 9460 nM |  | 406 nM |  |
| Clc1cccc(N2CCNCC2)c1 [mCPP, reference compound] |  |  |  | 227 nM |  |  |  |  |
| COc1c2n(c3cccc(F)c13)CCNC2 [Substanz C, 9-Fluor-1,2,3,4-tetrahydro-10-methoxy-pyrazino[1,2-a]indol] | 5170 nM | 221 nM | 17.0 mg/kg, s.c. | 1070 nM |  |  |  |  |

From patent EP0572863A1, “CNS pyrazinoindoles” (priority 1992, dated 1993)
